Source: patent EP0086256A1, “1-(2,4-Dichlorophenoxy)-3-(3,4-dimethoxy-beta-phenethylamino)-propan-2-0l, processes for its preparation and pharmaceutical compositions containing it” (VEB Arzneimittelwerk Dresden, priority 1981, dated 1983)
Where two headings read alike, the source gives them in different places. Each block holds one compound with its values, some of them ahead of it.

Experiments:
β2-Rezeptoren der Gefäße [1] = experiment: Stimulating effects on vascular β2 receptors, comparison with the known 2,5-dichloro compound; conditions: compared with the 2,4-Dichlor-Verbindung
From the text: 1-Phenoxy-3-alkylamino-propanole-(2) sind mehrfach beschrieben worden (DE-PS 2259 489, DE-PS 2213 044, DD-AP 45 360, BE-PS 783 086, NE-PS 6813 616, GD-PS 1148 563, NE-PS 7307 821, DD-AP 93 349, GB-PS 1078 852, BE-PS 746 107). Auch das 1-(2,5-Dichlor-phenoxy )-3-(3,4-dimethoxy-ß-phenethylamino)-propanol-(2) ist bekannt (JA-0 52033 829); es unterscheidet sich in seiner Wirksamkeit gegenüber der erfindungsgemäßen 2,4-Dichlor-Verbindung jedoch dadurch, daß die ausgeprügten stimulierenden Effekte an den β2-Rezeptoren der Gefäße, die eine große Bedeutung für den therapeutischen Einsatz besitzen, fehlen.

[2] = test system: Myokardinfarktmodell der Ratte; experiment: Myocardial infarction model, prophylactic oral dosing before coronary ligation; conditions: relative to Propranolol; orale Applikation von 3,6 und 12 mg/kg I über 28 Tage vor Ligatur der A. coronaria sinistra; CPK, GOT, EKG-Veränderungen, relatives Infarktgewicht
[3] = test system: elektrischen Flimmerschwelle; experiment: Antiarrhythmic effect, rise of the electrical fibrillation threshold; assay type: in vivo, Meerschweinchen; conditions: for ED50: Cavia porcellus, read-out: ED50, Erhöhung der elektrischen Flimmerschwelle
From the text: (§1) Aus diesem Grunde ist die Anwendung von nichtselektiv wirkenden β-Rezeptorenblockern bei Patienten mit obstruktiven Atemwegserkrankungen kontraindiziert. Aber auch die Anwendung der sogenannten kardioselektiven ß-Rezeptorenblocker, z. […] Disposition des Patienten zur Dyspnoe führen bzw. einen Asthmaanfall auslösen können.

[4] = molecular target: T1, adrenergen β2-Rezeptoren der Bronchialmuskulatur (Canis lupus familiaris, UniProt P54833); experiment: Respiratory minute volume in the anaesthetised dog; assay type: in vivo; conditions: narkotisierter Hund; 0,1 mg/kg
T1 construct: from tissue; host or cells: dog, whole animal (blood vessels; bronchial muscle in the anaesthetised dog)
T1 sequence (P54833 whole entry): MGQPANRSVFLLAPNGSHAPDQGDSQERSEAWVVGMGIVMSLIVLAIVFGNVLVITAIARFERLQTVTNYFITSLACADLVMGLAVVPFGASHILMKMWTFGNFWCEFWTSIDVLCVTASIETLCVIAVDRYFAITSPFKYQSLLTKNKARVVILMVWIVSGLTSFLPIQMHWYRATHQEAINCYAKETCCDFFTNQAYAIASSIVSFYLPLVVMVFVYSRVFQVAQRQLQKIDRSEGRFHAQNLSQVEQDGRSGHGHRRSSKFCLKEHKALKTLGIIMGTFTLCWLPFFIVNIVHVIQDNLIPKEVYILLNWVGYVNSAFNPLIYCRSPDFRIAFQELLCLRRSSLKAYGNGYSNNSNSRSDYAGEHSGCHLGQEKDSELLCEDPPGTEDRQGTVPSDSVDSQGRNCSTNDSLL
From the text: as §1

β2-Rezeptoren der Gefäße [5] = molecular target: T2, β2-Rezeptoren der Gefäße (Felis catus, UniProt Q9TST5); experiment: Influence on the blood-pressure-lowering effect of isoproterenol; assay type: in vivo; conditions: Katze
T2 construct: from tissue; host or cells: cat, whole animal (blood vessels)
T2 sequence (Q9TST5 whole entry): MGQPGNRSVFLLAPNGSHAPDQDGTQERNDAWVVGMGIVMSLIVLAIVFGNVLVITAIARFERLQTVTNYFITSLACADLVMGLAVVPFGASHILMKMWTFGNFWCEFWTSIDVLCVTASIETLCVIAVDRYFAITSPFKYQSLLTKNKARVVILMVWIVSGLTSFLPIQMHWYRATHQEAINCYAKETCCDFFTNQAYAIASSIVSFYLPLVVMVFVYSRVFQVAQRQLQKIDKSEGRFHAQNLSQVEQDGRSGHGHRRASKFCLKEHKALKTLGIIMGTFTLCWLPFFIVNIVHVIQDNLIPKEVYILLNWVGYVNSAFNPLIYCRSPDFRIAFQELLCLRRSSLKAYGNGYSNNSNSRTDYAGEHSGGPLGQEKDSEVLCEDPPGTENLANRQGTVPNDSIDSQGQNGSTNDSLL
From the text: as §1

β2-Rezeptoren der Gefäße [6] = molecular target: T3, β2-Rezeptoren der Gefäße (Canis lupus familiaris, UniProt P54833); experiment: as above; assay type: in vivo; conditions: Hund
T3 construct: from tissue; host or cells: dog, whole animal (blood vessels; bronchial muscle in the anaesthetised dog)
T3 sequence (P54833 whole entry): as the sequence (P54833 whole entry) above
From the text: as §1

β1-Rezeptoren [7] = experiment: Isoproterenol antagonism, lipolysis in epididymal fat; conditions: Isoproterenolantagonismus, Propranolol = 100; Ratte
in vivo = conditions: mouse, ip
From the text: as §1

β1-Rezeptoren [8] = molecular target: T4, β1-Rezeptoren (Felis catus, UniProt Q9TST6); experiment: β1 blockade, heart rate and contractility in the whole animal; assay type: in vivo; conditions: Katze; relative to Propranolol
T4 construct: from tissue; host or cells: cat, whole animal (heart)
T4 sequence (Q9TST6 whole entry): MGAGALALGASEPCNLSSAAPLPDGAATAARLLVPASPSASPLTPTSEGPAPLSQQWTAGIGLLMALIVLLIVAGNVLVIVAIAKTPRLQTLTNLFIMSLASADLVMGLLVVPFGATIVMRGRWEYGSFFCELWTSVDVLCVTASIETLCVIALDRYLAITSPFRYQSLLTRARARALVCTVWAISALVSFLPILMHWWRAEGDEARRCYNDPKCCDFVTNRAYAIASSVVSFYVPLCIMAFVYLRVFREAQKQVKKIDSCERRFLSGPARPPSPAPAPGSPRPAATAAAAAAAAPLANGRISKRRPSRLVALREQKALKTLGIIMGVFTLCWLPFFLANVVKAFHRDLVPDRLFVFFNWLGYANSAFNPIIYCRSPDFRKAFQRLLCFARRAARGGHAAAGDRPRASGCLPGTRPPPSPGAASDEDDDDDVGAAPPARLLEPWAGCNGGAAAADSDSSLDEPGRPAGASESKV
From the text: as §1

β1-Rezeptoren [9] = molecular target: T5, β1-Rezeptoren (Canis lupus familiaris, UniProt P79148); experiment: as above; assay type: in vivo; conditions: Hund; relative to Propranolol
T5 construct: from tissue; host or cells: dog, whole animal (heart)
T5 sequence (P79148 whole entry): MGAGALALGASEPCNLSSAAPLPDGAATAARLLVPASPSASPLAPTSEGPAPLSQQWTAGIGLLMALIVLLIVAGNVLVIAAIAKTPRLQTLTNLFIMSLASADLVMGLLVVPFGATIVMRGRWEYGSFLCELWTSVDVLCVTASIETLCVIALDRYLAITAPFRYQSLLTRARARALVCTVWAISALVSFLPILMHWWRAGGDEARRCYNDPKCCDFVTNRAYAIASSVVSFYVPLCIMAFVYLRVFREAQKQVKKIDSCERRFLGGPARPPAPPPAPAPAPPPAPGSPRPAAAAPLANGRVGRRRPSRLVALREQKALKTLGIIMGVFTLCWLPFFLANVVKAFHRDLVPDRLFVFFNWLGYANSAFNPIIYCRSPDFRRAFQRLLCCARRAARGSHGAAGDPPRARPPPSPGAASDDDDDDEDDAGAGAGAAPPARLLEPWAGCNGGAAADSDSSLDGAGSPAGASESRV
From the text: as §1

[10] = test system: spontan hypertensive Ratte; experiment: Antihypertensive effect in the spontaneously hypertensive rat; assay type: in vivo; conditions: fold stronger than Propranolol
From the text: as §1

β1-Rezeptoren [11] = experiment: Isoproterenol antagonism, intestinal peristalsis; conditions: Isoproterenolantagonismus, Propranolol = 100; Kaninchen
[12] = test system: adrenergen β2-Rezeptoren der Bronchialmuskulatur; experiment: β2 stimulation of bronchial muscle, isolated tracheal muscle and whole animal; conditions: am isolierten Trachealmuskel als auch im Ganztierversuch
From the text: as §1

[13] = molecular target: T6, adrenergen β2-Rezeptoren der Bronchialmuskulatur (Cavia porcellus, UniProt Q8K4Z4); experiment: Tolerance time to asthma-inducing histamine in the conscious guinea pig; assay type: in vivo, Meerschweinchen; conditions: read-out: ED50, Verdopplung der Toleranzzeit gegenüber dem asthmaauslösenden Histamin
T6 construct: from tissue; host or cells: conscious guinea pig, whole animal (airways)
T6 sequence (Q8K4Z4 whole entry): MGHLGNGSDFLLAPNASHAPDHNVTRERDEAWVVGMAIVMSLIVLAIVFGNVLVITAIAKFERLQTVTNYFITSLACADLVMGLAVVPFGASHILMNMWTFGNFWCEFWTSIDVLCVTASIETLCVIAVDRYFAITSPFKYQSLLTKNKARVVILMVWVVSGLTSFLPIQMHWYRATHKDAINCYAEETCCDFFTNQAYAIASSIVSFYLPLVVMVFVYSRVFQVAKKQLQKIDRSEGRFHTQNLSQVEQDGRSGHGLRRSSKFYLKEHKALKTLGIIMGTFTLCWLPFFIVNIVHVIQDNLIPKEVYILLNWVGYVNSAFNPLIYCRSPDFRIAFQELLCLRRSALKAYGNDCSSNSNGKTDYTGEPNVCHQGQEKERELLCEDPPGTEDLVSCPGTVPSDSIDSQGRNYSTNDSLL
From the text: as §1

[14] = test system: Nikotintremor des Meerschweinchens; experiment: Nicotine tremor, antiparkinson effect; assay type: in vivo, Meerschweinchen; conditions: compared with Trihexylphenidyl (Parkopan)
From the text: as §1

- stimulierende Effekte an den β2-Rezeptoren der Gefäße (β2-Rezeptoren der Gefäße [1]): fehlen
Compound: COc1ccc(CCNCC(O)COc2cc(Cl)ccc2Cl)cc1OC (stereo not shown) [1-(2,5-Dichlor-phenoxy)-3-(3,4-dimethoxy-ß-phenethylamino)-propanol-(2)]

Compound: COc1ccc(CCNCC(O)COc2ccc(Cl)cc2Cl)cc1OC (stereo not drawn) [I, 1-(2,4-Dichlorphenoxy)-3-(3,4-dimethoxy-β-phenethylamino)-propanol-(2)]
- kardioprotektive Wirkung [2]: zweimal
- ED50 ([3]; Meerschweinchen): 0.22 mg/kg
- Atemzeitvolumen [4]: isoproterenolähnlichen Vergrößerung des Atemzeitvolumens
- blutdrucksenkender Effekt des Isoproterenols (β2-Rezeptoren der Gefäße [5]): Verstärkung der Isoproterenolwirkung
- blutdrucksenkender Effekt des Isoproterenols (β2-Rezeptoren der Gefäße [6]): Verstärkung der Isoproterenolwirkung
- Stärke der β1-Rezeptorenblockade, Lipolyse (Epiditymalfett) (β1-Rezeptoren [7]): 220
- LD50 (in vivo): 141 mg/kg
- Wirksamkeit an den β1-Rezeptoren (Herzfrequenz und Kontralctilität am Ganztier) (β1-Rezeptoren [8]): nur halb so wirksam wie Propranolol
- Wirksamkeit an den β1-Rezeptoren (Herzfrequenz und Kontralctilität am Ganztier) (β1-Rezeptoren [9]): nur halb so wirksam wie Propranolol
- antihypertensiver Effekt [10]: ~10
- Stärke der β1-Rezeptorenblockade, Darmperistaltik (β1-Rezeptoren [11]): 100
- Stimulation der adrenergen β2-Rezeptoren der Bronchialmuskulatur [12]: nachweisen läßt
- ED50 [13]: 0.76 mg/kg
- Antiparkinsonwirkung [14]: etwa die gleiche Antiparkinsonwirkung wie Trihexylphenidyl

Compound: CC(C)NCC(O)c1ccc(O)c(O)c1 (stereo not shown) [Isoproterenol, reference compound]
- ED50 [13]: 0.04 mg/kg

Compound: CC(C)NCC(O)COc1cccc2ccccc12 (stereo not shown) [Propranolol, reference compound]
- ED50 ([3]; Meerschweinchen): 1.4 mg/kg
- blutdrucksenkender Effekt des Isoproterenols (β2-Rezeptoren der Gefäße [5]): aufhebt

Compound: CC(C)(C)NCC(O)COc1ccc(NC(=O)NC2CCCCC2)cc1 (stereo not shown) [Talinolol, reference compound]
- ED50 [3]: 0.31 mg/kg
- Stärke der β1-Rezeptorenblockade, Lipolyse (Epiditymalfett) (β1-Rezeptoren [7]): 96
- Stärke der β1-Rezeptorenblockade, Darmperistaltik (β1-Rezeptoren [11]): 35

Compound: Tachmalin
- ED50, Erhöhung der elektrischen Flimmerschwelle ([3]; Meerschweinchen): 0,71 mg/kg
